Laboratory results from publication PMC7698842, “Lanostane Triterpenoid Metabolites from a Penares sp. Marine Sponge Protect Neuro-2a Cells against Paraquat Neurotoxicity” (Molecules, 2020).

Columns and labels:
[1] = Cytotoxicity toward Neuro-2a cells (MTT assay); assay type: cell-based, mouse; conditions: mouse, Neuro-2a neuroblastoma cells, 24 h
Experimental: The cells of mouse neuroblastoma cell line Neuro-2a (ATCC® CCL-131™; American Type Culture Collection, Manassas, VA, USA) were cultured in Dulbecco’s modified Eagle’s medium (DMEM) containing 10% fetal bovine serum (Biolot, St. Petersburg, Russia) and 1% penicillin/streptomycin (Biolot, St. Petersburg, Russia) at 37 °C in a humidified atmosphere with 5% (v/v) CO2. Initially, cells were incubated in cultural flasks until sub-confluent (~80%). For testing, Neuro-2a cells were seeded in 96- or 6-well plates and experiments were started after 24 h.
The cells (1 × 10^4 cells/well of a 96-well plate) were incubated with different concentrations of studied compounds during 24 h. After that, cell viability was determined by the MTT (3-(4,5-dimethylthiazol-2-yl)-2,5-diphenyltetrazolium bromide) method according to the manufacturer’s instructions (Sigma-Aldrich, St. Louis, MO, USA). Absorbance of the converted formazan was measured using a Multiskan FC microplate photometer (Thermo Scientific, Waltham, MA, USA) at λ = 570 nm. The results were presented as percent of control data, and concentration of cell viability inhibition on 50% (IC50) was calculated.

[2] = tested on: mitochondrial membrane potential in PQ-treated Neuro-2a cells; assay: Mitochondrial membrane potential detection (TMRM) in PQ-treated Neuro-2a cells; assay type: cell-based, mouse; conditions: compound 10 μM, PQ 500 µM 1 h
Experimental: The cells (1 × 10^4 cells/well of a 96-well plate) were incubated with compound solutions (1 and 10 µM) during 1 h. Then, PQ was added to cell suspension to a resulting concentration of 500 µM for incubation during 1 h. Cells incubated without PQ and compounds and with PQ alone were used as positive and negative controls, respectively. The tetramethylrhodamine methyl (TMRM) (Sigma-Aldrich, St. Louis, MO, USA) solution at 500 nM was added in each well and cells were incubated for 30 min at 37 °C. The intensity of fluorescence was measured with a PHERAstar FS plate reader (BMG Labtech, Ortenberg, Germany) at λex = 540 nm and λem = 590 nm. The data were processed by MARS Data Analysis v. 3.01R2 (BMG Labtech, Ortenberg, Germany). The results were presented as percent of positive control data.

[3] = tested on: Hsp70 level in Neuro-2a cells; assay: Hsp70 level analysis by Western blot in Neuro-2a cells; assay type: cell-based, mouse; conditions: compound 10 µM 1 h, then PQ 500 µM 24 h
Experimental: The Hsp70 expression was detected by Western blot analysis. Cell suspensions (1.6 × 10^5 cells/well of a 6-well plate) were seeded and treated with studied compounds at a concentration of 10 µM for 1 h. After that, PQ (500 µM) was added and cells were incubated during 24 h. Cells incubated without PQ and compounds and with PQ alone were used as positive and negative controls, respectively. Cells were washed by cold PBS (BioloT, Russia) twice and lysed by radioimmunoprecipitation assay (RIPA) buffer (BioloT, St. Peterburg, Russia). The amount of proteins was measured by the Bradford method and equal samples (25 µg) were prepared using sample buffer. Proteins were separated with sodium dodecyl sulphate (SDS) electrophoresis in 10% polyacrylamide gel. The electrophoretically separated proteins were transferred onto the polyvinylidene difluoride (PVDF) membrane Whatman (Sigma-Aldrich, St. Louis, MO, USA) using a semi-dry transfer apparatus (Helicon, Moscow, Russia). […] The peroxidase reaction was visualized by an enhanced chemiluminescence (ECL) kit according to the instructions of the manufacturer (Sigma-Aldrich, St. Louis, MO, USA) using the VersaDoc Imaging System (Bio-Rad, Hercules, CA, USA).

[4] = tested on: histamine release induced by anti-IgE; conditions: cited from earlier work

CC(C)=CCC[C@@H](C)[C@H]1CC[C@@]2(C(=O)O)C3=C(CC[C@]12C)[C@@]1(C)CCC(=O)C(C)(C)[C@@H]1CC3 [Compound 4, penasterone]
activity at 24 h, 10 µM ([1]; Neuro-2a cell viability, 10 μM, read-out: Cytotoxicity (MTT Assay) % of Control at 10 μM): 95.3 ± 2.7% | IC50 at 24 h ([1]; Neuro-2a cells): > 100 µM | increase of intensity of TMRM fluorescence (PQ-induced mitochondrial dysfunction diminished) [2]: 28% | increase of Hsp70 level in PQ-treated cells [3]: 56% | inhibition of histamine release induced by anti-IgE [4]: inhibitors of histamine release
